Data from US7792665B2, “Method for designing a compound based on the three dimensional structure of phosphoinositide dependent protein kinase 1 (PDK1)” (Medical Research Council, priority 2002, dated 2010).
Substitutions are numbered along the chain they refer to. “Also recorded” adds a separate entry of the source. Where a SMILES comes first, the peptide text is derived from it. [ ]: non-standard residue; d: D form. pT = C[C@@H](OP(=O)(O)O)[C@H](N)C(=O)O

Key:
PDK1[R131A] = biological target: T1, PDK1[R131A] (Homo sapiens, UniProt O15530, R131A); assay: Surface plasmon resonance (BiaCore) binding, PDK1[R131A]
T1 construct: GST (N); made in house; host or cells: human embryonic kidney 293 cells (pEBG2T vector)
T1 sequence (O15530 1-556 R131A): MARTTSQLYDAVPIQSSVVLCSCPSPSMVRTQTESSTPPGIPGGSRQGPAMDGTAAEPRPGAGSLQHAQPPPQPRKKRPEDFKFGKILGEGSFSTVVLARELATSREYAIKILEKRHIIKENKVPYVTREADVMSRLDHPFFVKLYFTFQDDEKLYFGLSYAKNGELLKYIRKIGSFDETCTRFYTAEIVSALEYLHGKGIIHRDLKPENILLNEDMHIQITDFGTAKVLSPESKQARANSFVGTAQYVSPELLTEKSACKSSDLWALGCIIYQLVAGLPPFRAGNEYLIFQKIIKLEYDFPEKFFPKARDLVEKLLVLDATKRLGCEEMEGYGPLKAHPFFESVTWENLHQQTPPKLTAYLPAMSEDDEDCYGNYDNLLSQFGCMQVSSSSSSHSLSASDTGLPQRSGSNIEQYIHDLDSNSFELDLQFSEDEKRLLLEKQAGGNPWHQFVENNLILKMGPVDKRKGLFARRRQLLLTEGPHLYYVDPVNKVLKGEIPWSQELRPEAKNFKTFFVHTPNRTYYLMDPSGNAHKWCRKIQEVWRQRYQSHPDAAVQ
Procedure: (§1) Binding and activation of wild type and mutant forms of PDK1 to a phosphopeptide derived from the hydrophobic motif of S6K1. The binding of the wild type (wt) PDK1 and indicated mutants to a phosphopeptide comprising the hydrophobic motif of S6K1 (S6K-pHM: […]*YVAPSV, where T* indicates phospho-threonine, SEQ ID NO:104) was analysed by surface plasmon resonance as described in the Materials and Methods.
(§2) A. The sensor chip SA was coated with 12RUs of the biotinylated S6K-pHM peptide and the binding was analysed following injection of 270 nM wild type PDK1, PDK1 [T148A] and PDK1 [K76A]. […] (data not shown).
(§3) Binding was analysed in a BiaCore 3000 system (BiaCore AB, Stevenage, UK). Biotinylated S6K-pHM (Biotin-C12-[…](P)YVAPSV) (SEQ ID NO:104) or the non-phosphorylated form of this peptide S6K-HM was bound to an streptavidin-coated Sensor chip (SA) (12 response units, RU). 30 μl of wild type or the indicated mutant GST-PDK1 were injected at a flow rate of 30 μl/min, in buffer HBS-P (10 mM HEPES pH 7.4, 0.15M NaCl, 0.005% (by vol) polysorbate-20) supplemented with 1 mM DTT. Specific interactions between 56K-pHM and PDK1 proteins were obtained between the concentration range of 2-2150 nM PDK1. Steady state binding was determined at each concentration. Dissociation of PDK1 from the phospho-peptide was monitored over a 1 min period. […]

PDK1[Q150A] [1] = biological target: T2, PDK1[Q150A] (Homo sapiens, UniProt O15530, Q150A); assay: PDK1 catalytic activity towards T308tide, activation by peptides, PDK1[Q150A]; type: biochemical; set-up: made in house
T2 sequence (O15530 1-556 Q150A): T1 sequence (O15530 1-556 R131A) with A131R, Q150A
Procedure: C. Activation of the indicated forms of PDK1 by 56K-pHM and S6K-HM. PDK1 activity was measured using the peptide substrate (T308tide) in the presence of the indicated concentrations of 56K-pHM (closed circles) and S6K-HM (open circles) as described in the methods. Assays were performed in triplicate and similar results obtained in 2 separate experiments. The results are the average—SD for a single experiment.
The ability of wild type and mutant PDK1 to phosphorylate the synthetic peptide T308tide ([…] ([Biondi et al., 2000]) (SEQ ID NO:108) was carried out in 30 μl assays containing 100 ng of wild type or mutant PDK1, 50 mM Tris/HCl pH 7.5, 0.1% 13-mercaptoethanol, 10 mM MgCl2, 100 μM [32γ P]ATP (200 cpm/pmol), 0.5 μM microcystin-LR, 1 mM T308tide in the presence or absence of the indicated concentrations of the 56K-pHM peptide ([…](P)YVAPSV) (SEQ ID NO:104) or 56K-HM. peptide ([…]) (SEQ ID NO:105). After incubation for 10 min at 30° C., 25 μl of the resultant mixture was spotted into P81 phosphocellulose paper (2×2 cm) and the papers washed and analysed as described previously for assays of MAP kinase. Control assays were carried out in parallel in which either PDK1, or peptide substrate were omitted; these values were always less than 5% of the activity measured in the presence of these reagents. […]

PDK1[Q150A] [2] = biological target: T2, PDK1[Q150A]; assay: Surface plasmon resonance (BiaCore) binding, PDK1[Q150A]; set-up: made in house; host or cells: human embryonic kidney 293 cells (pEBG2T vector)
Procedure: as §1, §2, §3

## CC(C)C[C@H](NC(=O)[C@H](Cc1ccccc1)NC(=O)[C@@H](NC(=O)[C@H](CCC(N)=O)NC(=O)[C@H](CC(N)=O)NC(=O)[C@H](C)NC(=O)[C@H](CO)NC(=O)[C@H](CCC(=O)O)NC(=O)[C@@H](N)CO)C(C)C)C(=O)NCC(=O)N[C@@H](Cc1ccccc1)C(=O)N[C@H](C(=O)N[C@@H](Cc1ccc(O)cc1)C(=O)N[C@H](C(=O)N[C@@H](C)C(=O)N1CCC[C@H]1C(=O)N[C@@H](CO)C(=O)N[C@H](C(=O)O)C(C)C)C(C)C)[C@@H](C)OP(=O)(O)O [S6K-pHM] (H-SESANQVFLGF[pT]YVAPSV-OH; N-terminus and C-terminus assumed)
PDK1[R131A]
  binding of PDK1[R131A] to peptide: No detectable binding; also recorded: did not detectably interact
PDK1[Q150A] [1]; peptide 0.3 and 1 mM
  activation of PDK1[Q150A]: 2-3 fold
PDK1[Q150A] [1]; peptide below 0.1 mM
  activation of PDK1[Q150A]: not significantly activated
PDK1[Q150A] [2]
  binding of PDK1[Q150A] to peptide: No detectable binding; also recorded: did not detectably interact
